From US20100267697A1, “ION CHANNEL MODULATORS” (Wyeth, priority 2006, published 2010)
pIC50: −log10 of the molar value. Read-outs that look alike come from different tables or passages of the source.

Biological target: T1, Cav2.2 (Homo sapiens, UniProt Q00975)
T1 construct: expressed in transfected cells; host or cells: HEK-293T/17 (transient, FuGENE 6)
Assay: HEK assay (whole-cell patch clamp, transiently transfected HEK-293T/17 cells, pulses P1 and P5)
Format: cell-based
Conditions: holding potential −100 mV
Procedure: HEK-293T/17 cells were transiently transfected in a similar manner as described in FuGENE 6 Package Insert Version 7, April 2002, Roche Applied Science, Indianapolis, Ind. The cells were plated at 2.5×10^5 cells in 2 mL in a 6-well plate, incubated for one night, and achieved a ˜30-40% confluence. In a small sterile tube, sufficient serum-free medium was added as diluent for FuGENE Transfection Reagent (Roche Applied Science, Indianapolis, Ind.) to a total volume of 100 μL. To this medium was added 3 μL of FuGENE 6 Reagent. The mixture was tapped gently to mix. To the prediluted FuGENE 6 Reagent was added 2 μg of DNA solution (0.8-2.0 μg/μL). The DNA/Fugene 6 mixture was gently pipeted to mix the contents and incubated for about 15 minutes at room temperature. The complex mixture was then added to the HEK-293T/17 cells, distributed around the well, and swirled to ensure even dispersal. The cells were returned to the incubator for 24 hours. The transfected cells were then replated at density 2.5×10^5 in a 35 mm dish with 5 glass coverslips and grew in low serum (1%) media for 24 hours. Coverslips with isolated cells were then transferred into a chamber, and calcium channel (e.g., L-type, N-type, etc.) current or other currents for counter screening were recorded from the transiently transfected HEK-293T/17 cells.
The whole-cell voltage clamp configuration of the patch clamp technique was employed to evaluate voltage-dependent calcium currents essentially as described by Thompson and Wong (1991), J. Physiol., 439: 671-689, the entire disclosure of which is herein incorporated by reference. To record calcium channel (e.g., L-type, N-type, etc.) currents for evaluation of inhibitory potency of compounds (steady-state concentration-response analysis), five pulses of 20-30 ms voltage steps to about +10 mV (the peak of the current voltage relationship) were delivered at five Hz every 30 second from a holding potential at −100 mV. In order to obtain an estimate of the degree of use-dependent block of the test compounds, IC50 values were determined at the first and fifth pulse of the train (P1 and P5, respectively, in Table 2). Compound evaluations were carried out essentially as described by Sah D. W. and Bean B. P. (1994), Mol. Pharmacol., 45:84-92, the entire disclosure of which is herein incorporated by reference.

[1] = fifth pulse (P5) of 5 Hz train, read-out: HEK Cav2.2 P5 IC50
[2] = first pulse (P1) of 5 Hz train, read-out: HEK Cav2.2 P1 IC50

T1 sequence (Q00975 whole entry): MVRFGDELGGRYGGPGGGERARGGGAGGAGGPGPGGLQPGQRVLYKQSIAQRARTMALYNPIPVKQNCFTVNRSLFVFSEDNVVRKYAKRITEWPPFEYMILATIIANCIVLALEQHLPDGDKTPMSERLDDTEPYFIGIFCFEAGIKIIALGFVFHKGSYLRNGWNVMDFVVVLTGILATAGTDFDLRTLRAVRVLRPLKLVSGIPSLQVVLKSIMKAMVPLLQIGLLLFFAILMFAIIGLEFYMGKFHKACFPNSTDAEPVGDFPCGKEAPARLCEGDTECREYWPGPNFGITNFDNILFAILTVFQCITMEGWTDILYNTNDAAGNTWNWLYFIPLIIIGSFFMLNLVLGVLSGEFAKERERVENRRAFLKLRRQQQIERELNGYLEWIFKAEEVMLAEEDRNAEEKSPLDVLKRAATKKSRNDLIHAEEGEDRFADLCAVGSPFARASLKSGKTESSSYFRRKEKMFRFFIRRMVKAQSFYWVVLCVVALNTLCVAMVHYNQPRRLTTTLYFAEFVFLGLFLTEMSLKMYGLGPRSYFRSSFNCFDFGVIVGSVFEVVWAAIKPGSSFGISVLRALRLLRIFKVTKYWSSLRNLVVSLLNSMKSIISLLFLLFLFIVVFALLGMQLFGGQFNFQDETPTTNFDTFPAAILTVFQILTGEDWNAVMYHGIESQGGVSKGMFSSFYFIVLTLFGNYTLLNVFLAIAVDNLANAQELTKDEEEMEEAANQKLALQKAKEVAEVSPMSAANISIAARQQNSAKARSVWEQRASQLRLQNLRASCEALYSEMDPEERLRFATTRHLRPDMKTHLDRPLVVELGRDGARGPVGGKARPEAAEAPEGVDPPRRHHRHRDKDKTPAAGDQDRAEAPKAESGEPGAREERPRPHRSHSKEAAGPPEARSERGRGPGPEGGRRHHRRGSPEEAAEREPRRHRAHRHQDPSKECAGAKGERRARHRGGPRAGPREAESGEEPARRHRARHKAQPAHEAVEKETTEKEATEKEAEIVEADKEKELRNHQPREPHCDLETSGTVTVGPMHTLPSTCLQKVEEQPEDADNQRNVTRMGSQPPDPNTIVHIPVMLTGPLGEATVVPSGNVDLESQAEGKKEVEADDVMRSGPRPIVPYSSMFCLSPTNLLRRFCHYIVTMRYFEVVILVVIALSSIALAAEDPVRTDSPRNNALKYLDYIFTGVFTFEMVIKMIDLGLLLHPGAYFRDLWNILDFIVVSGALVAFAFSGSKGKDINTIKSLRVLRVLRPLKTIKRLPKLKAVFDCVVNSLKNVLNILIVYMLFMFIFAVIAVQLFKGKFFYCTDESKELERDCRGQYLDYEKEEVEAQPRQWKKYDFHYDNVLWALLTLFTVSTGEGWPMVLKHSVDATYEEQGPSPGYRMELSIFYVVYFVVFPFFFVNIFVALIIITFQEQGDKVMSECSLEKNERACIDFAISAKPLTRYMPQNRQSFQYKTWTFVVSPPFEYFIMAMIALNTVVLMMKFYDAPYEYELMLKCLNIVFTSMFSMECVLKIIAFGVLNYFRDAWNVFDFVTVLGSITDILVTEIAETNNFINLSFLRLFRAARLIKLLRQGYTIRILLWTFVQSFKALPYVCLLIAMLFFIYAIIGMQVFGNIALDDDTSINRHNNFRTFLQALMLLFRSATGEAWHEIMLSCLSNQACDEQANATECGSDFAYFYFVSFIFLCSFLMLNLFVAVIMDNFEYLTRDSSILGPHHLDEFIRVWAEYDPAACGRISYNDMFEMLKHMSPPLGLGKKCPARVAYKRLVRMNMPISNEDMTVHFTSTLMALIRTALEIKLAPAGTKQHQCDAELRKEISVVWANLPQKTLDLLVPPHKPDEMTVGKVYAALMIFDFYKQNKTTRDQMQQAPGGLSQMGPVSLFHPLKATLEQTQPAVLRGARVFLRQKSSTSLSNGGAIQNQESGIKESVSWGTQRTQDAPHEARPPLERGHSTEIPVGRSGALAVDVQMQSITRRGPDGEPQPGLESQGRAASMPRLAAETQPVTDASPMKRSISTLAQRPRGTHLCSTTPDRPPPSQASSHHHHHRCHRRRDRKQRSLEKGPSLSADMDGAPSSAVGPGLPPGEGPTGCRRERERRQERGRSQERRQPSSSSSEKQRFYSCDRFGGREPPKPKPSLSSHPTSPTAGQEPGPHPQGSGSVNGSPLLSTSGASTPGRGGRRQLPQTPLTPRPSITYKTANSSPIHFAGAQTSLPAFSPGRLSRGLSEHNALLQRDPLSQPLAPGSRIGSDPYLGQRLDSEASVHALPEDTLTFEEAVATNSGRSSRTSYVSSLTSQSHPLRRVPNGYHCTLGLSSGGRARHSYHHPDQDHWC
T1 sequence (P54284 whole entry partner): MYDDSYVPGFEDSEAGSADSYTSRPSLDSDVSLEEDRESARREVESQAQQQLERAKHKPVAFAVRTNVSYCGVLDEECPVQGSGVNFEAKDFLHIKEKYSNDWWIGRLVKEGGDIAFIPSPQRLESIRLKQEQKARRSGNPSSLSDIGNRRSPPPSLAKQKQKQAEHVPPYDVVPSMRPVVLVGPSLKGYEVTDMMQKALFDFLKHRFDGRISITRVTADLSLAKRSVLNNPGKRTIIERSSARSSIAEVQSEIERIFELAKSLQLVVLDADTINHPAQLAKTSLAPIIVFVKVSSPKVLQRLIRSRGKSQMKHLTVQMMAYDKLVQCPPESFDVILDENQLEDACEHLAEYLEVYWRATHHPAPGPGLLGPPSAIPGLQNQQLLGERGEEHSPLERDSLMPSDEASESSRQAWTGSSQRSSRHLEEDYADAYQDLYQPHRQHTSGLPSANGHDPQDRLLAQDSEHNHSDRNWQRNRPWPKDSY
T1 sequence (P54289 25-946 partner limits assumed): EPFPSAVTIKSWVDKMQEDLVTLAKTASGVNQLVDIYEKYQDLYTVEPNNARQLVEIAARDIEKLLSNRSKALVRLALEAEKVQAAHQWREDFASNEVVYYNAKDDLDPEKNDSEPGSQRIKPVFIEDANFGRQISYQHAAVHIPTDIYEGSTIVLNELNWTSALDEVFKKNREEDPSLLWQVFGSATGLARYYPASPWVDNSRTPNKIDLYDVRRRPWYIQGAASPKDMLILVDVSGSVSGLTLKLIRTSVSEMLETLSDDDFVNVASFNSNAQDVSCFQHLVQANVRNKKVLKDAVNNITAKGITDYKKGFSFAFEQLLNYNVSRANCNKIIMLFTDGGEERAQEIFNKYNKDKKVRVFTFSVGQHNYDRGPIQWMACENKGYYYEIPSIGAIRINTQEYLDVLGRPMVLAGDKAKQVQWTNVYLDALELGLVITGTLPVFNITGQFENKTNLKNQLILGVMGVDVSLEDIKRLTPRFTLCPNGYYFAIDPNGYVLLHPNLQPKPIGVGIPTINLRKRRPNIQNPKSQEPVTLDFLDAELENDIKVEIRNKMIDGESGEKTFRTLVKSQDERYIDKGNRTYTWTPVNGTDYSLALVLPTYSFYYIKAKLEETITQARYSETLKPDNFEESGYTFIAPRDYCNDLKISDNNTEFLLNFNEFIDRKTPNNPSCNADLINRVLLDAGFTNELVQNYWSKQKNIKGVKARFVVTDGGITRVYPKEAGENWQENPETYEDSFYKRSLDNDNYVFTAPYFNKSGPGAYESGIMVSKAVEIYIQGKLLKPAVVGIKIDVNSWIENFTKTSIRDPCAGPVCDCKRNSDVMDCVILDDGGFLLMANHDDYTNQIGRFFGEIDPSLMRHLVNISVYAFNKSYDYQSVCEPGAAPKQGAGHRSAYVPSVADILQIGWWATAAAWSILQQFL
T1 sequence (P54289 947-1103 partner limits assumed): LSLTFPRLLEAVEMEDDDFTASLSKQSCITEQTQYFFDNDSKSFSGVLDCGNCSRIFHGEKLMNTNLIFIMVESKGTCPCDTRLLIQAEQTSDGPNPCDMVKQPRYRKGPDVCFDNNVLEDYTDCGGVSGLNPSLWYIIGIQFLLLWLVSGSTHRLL

Row | SMILES | pIC50 [1] | pIC50 [2]
1 | CC(C)(C)C(=O)N(Cc1ccc(N2CC[C@@H](Oc3ccccn3)C2)nc1)c1ccc(F)cc1 [Compound 55, N-(4-Fluorophenyl)-2,2-dimethyl-N-{6-[3-(pyridin-2-yloxy)-pyrroldiin-1-yl]-pyridin-3-ylmethyl}-propionamide] | 6.22 | 5.77
2 | CNC1CCN(c2ccc(CN(C(=O)C(C)(C)C)c3ccc(F)cc3)cn2)C1 (centres unmarked) [Compound 56, N-(4-Fluorophenyl)-2,2-dimethyl-N-[6-(3-methylamino-pyrrolidin-1-yl)-pyridin-3-ylmethyl]-propionamide] | 5.55 | 5.22
3 | CCN(CCc1cccnc1)c1ccc(CN(C(=O)C(C)(C)C)c2ccc(F)cc2)cn1 [Compound 58, N-{6-[Ethyl-(2-pyridin-3-yl-ethyl)-amino]-pyridin-3-ylmethyl}-N-(4-fluorophenyl)-2,2-dimethyl-propionamide] | 6.05 | 5.31
4 | CC(C)(C)C(=O)N(Cc1ccc(NCCc2cccnc2)nc1)c1ccc(F)cc1 [Compound 59, N-(4-Fluorophenyl)-2,2-dimethyl-N-[6-(2-pyridin-3-yl-ethylamino)-pyridin-3-ylmethyl]-propionamide] | 5.42 | 4.54
5 | CCN(CC)c1ccc(CN(C(=O)C(C)(C)n2cc(Cc3ccccc3)nn2)c2ccc(F)cc2)cn1 [Compound 63, 2-(4-Benzyl-[1,2,3]triazol-1-yl)-N-(6-diethylamino-pyridin-3-ylmethyl)-N-(4-fluorophenyl)-isobutyramide] | 6.15 | 5.57
6 | CN(c1ccccc1)c1nc(CN(C(=O)C(C)(C)C)c2ccc(F)cc2)cs1 [Compound 65, N-(4-Fluorophenyl)-2,2-dimethyl-N-[2-(methyl-phenyl-amino)-thiazol-4-ylmethyl]-propionamide] | 6.22 | 5.74
7 | CN(Cc1ccco1)c1ccc(CN(C(=O)C(C)(C)C)c2ccc(F)cc2)cn1 [Compound 66, N-(4-Fluorophenyl)-N-[6-(furan-2-ylmethyl-methyl-amino)-pyridin-3-ylmethyl]-2,2-dimethyl-propionamide] | 5.96 | 5.46
8 | CC(C)(C)Nc1ccc(CN(C(=O)C(C)(C)C)c2ccc(F)cc2)cn1 [Compound 67, N-(6-tert-Butylamino-pyridin-3-ylmethyl)-N-(4-fluorophenyl)-2,2-dimethyl-propionamide] | 5.43 | 5.03
9 | COc1ccc(OCc2nc(CN(C(=O)C(C)(C)C)c3ccc(F)cc3)cs2)cc1 [Compound 68, N-(4-Fluorophenyl)-N-[2-(4-methoxy-phenoxymethyl)-thiazol-4-ylmethyl]-2,2-dimethyl-propionamide] | 5.92 | 5.49
10 | CC(C)c1cccc(N(Cc2csc(N3CCCCC3)n2)C(=O)C(C)(C)C)c1 [Compound 71, N-(3-Isopropyl-phenyl)-2,2-dimethyl-N-(2-piperidin-1-yl-thiazol-4-ylmethyl)-propionamide] | 6.30 | 5.62
11 | CCC(C)(C)C(=O)N(Cc1csc(N2CCOCC2)n1)c1ccc(F)cc1 [Compound 73, N-(4-Fluorophenyl)-2,2-dimethyl-N-(2-morpholin-4-yl-thiazol-4-ylmethyl)-butyramide] | 5.07 | 4.47
12 | CN(c1ccc(CN(C(=O)C(C)(C)C)c2ccc(F)cc2)cn1)C1CC1 [Compound 74, N-[6-(Cyclopropyl-methyl-amino)-pyridin-3-ylmethyl]-N-(4-fluorophenyl)-2,2-dimethyl-propionamide] | 5.55 | 4.89
13 | CC(C)(C)C(=O)N(Cc1csc(-c2ccncc2)n1)c1ccc(F)cc1 [Compound 75, N-(4-Fluorophenyl)-2,2-dimethyl-N-(2-pyridin-4-yl-thiazol-4-ylmethyl)-propionamide] | 4.96 | 4.33
14 | CN1CCN(c2ncc(CN(C(=O)C(C)(C)C)c3ccc(F)cc3)s2)CC1 [Compound 76, N-(4-Fluorophenyl)-2,2-dimethyl-N-[2-(4-methyl-piperazin-1-yl)-thiazol-5-ylmethyl]-propionamide] | 5.28 | 4.54
15 | CC(C)(C)C(=O)N(Cc1csc(N2CCCC2)n1)c1ccc(F)cc1 [Compound 77, N-(4-Fluorophenyl)-2,2-dimethyl-N-(2-pyrrolidin-1-yl-thiazol-4-ylmethyl)-propionamide] | 5.59 | 4.72
16 | CC(C)(C)C(=O)N(Cc1ccc(NC2CC2)nc1)c1ccc(F)cc1 [Compound 78, N-(6-Cyclopropylamino-pyridin-3-ylmethyl)-N-(4-fluorophenyl)-2,2-dimethyl-propionamide] | 5.14 | 4.85
17 | CN(c1ccc(F)cc1)c1nc(CN(C(=O)C(C)(C)C)c2ccc(F)cc2)cs1 [Compound 79, N-(4-Fluorophenyl)-N-{2-[(4-fluorophenyl)-methyl-amino]-thiazol-4-ylmethyl}-2,2-dimethyl-propionamide] | 7.00 | 6.52
18 | COc1ccc(N(C)c2nc(CN(C(=O)C(C)(C)C)c3ccc(F)cc3)cs2)cc1 [Compound 80, N-(4-Fluorophenyl)-N-{2-[(4-methoxy-phenyl)-methyl-amino]-thiazol-4-ylmethyl}-2,2-dimethyl-propionamide] | 6.22 | 5.62
19 | CN(c1ccc(F)cc1)c1nc(CN(C(=O)C(C)(C)C)c2ccc(F)cn2)cs1 [Compound 82, N-{2-[(4-Fluorophenyl)-methyl-amino]-thiazol-4-ylmethyl}-N-(5-fluoro-pyridin-2-yl)-2,2-dimethyl-propionamide] | 5.66 | 4.92
20 | CN(C)c1ccc(N(Cc2csc(N3CCCCC3)n2)C(=O)C(C)(C)C)cc1 [Compound 86, N-(4-Dimethylamino-phenyl)-2,2-dimethyl-N-(2-piperidin-1-yl-thiazol-4-ylmethyl)-propionamide] | 5.51 | 4.90
21 | CCN(c1ccc(CN(C(=O)C(C)(C)C)c2ccc(F)cc2)cc1)C1CC1 [Compound 87, N-[4-(Cyclopropyl(ethyl)amino)-benzyl]-N-(4-fluorophenyl)-2,2-dimethyl-propionamide] | 5.85 | 5.38
22 | CCN(CC)c1ccc(N(Cc2csc(N(C)c3ccc(F)cc3)n2)C(=O)C(C)(C)C)cc1 [Compound 88, N-(4-Diethylamino-phenyl)-N-{2-[(4-fluorophenyl)-methyl-amino]-thiazol-4-ylmethyl}-2,2-dimethyl-propionamide] | 7.00 | 6.40
23 | CN(C)c1ccc(N(Cc2csc(N(C)c3ccc(C(F)(F)F)cc3)n2)C(=O)C(C)(C)C)cc1 [Compound 89, N-(4-Dimethylamino-phenyl)-2,2-dimethyl-N-{2-[methyl-(4-trifluoromethyl-phenyl)-amino]-thiazol-4-ylmethyl}-propionamide] | 6.52 | 5.96
24 | CCN(CC)c1ccc(CN(C(=O)C(C)(C)CC)c2ccc(N(C)C)cc2)cc1 [Compound 90, N-(4-Diethylaminobenzyl)-N-(4-dimethylamino-phenyl)-2,2-dimethyl-butyramide] | 6.10 | 5.66
25 | CCN(CC)c1ccc(CN(C(=O)CCC(C)C)c2ccc(N(C)C)cc2)cc1 [Compound 91, 4-Methyl-pentanoic acid (4-Diethylaminobenzyl)-(4-dimethylamino-phenyl)-amide] | 6.22 | 6.00
